The source of these data is patent US20110201603A1, “Novel Acylaminobenzamide Derivatives” (Bayer CropScience AG, priority 2008, published 2011).

The test system of this experiment is tobacco cutworm (Spodoptera litura) larvae. As to the kind of experiment: Test against tobacco cutworm (Spodoptera litura) larvae, leaf dip. The experiment is classed as in vivo. The following applies: active compound concentration of 100 ppm; third-instar larvae on sweet potato leaves; after 7 days. The method, then:
Unless not mentioned otherwise, the test solutions were prepared as follows:
Containing as solvent: Dimethylformamide, 3 parts by weight; and as emulsifier: Polyoxyethylene alkyl phenyl ether, 1 part by weight
To prepare the test solution, 1 part by weight of an active compound is mixed with the above-mentioned amount of solvent containing the above-mentioned amount of emulsifier, and the mixture is diluted with water to the desired concentration.
The leaves of sweet potato were immersed in the test solution at the appropriate concentration, and the leaves were dried in air. The leaves were then placed in a petri dish having a diameter of 9 cm, and ten third-instar larvae of tobacco cutworm were released therein. The petri dish was placed in a temperature-controlled chamber at 25° C. After 2 days and 4 days sweet potato leaves were additionally added. After 7 days, the number of dead larvae was counted to calculate the insecticidal activity. An insecticidal activity of 100% means that all larvae were killed, whereas an insecticidal activity of 0% means that no larva was killed. In the current test, the results of two petri dishes for each partition were averaged.
In the case of `CCc1cc(C(n2cc(Cl)cn2)(C(F)(F)F)C(F)(F)F)cc(C)c1NC(=O)c1cccc(NC(=O)c2cccc(F)c2)c1` [2-35], the insecticidal activity worked out at 100%. In the case of `CCc1cc(C(n2cc(Cl)cn2)(C(F)(F)F)C(F)(F)F)cc(C)c1NC(=O)c1cccc(NC(=O)c2c(F)cccc2F)c1` [2-40], the insecticidal activity is 100%. The result for `O=C(Nc1c(Br)cc(C(c2ccccc2)(n2ccc(C(F)(F)F)n2)C(F)(F)F)cc1Br)c1cccc(NC(=O)c2cccnc2Cl)c1` (single isomer, unassigned) [2-99] reads 100%. For the compound `Cc1cc(C(n2cnc(C(F)(F)F)c2)(C(F)(F)F)C(F)(F)F)cc(C)c1NC(=O)c1cccc(NC(=O)c2cccnc2Cl)c1` [2-142], the insecticidal activity is recorded as 100%.

`CCc1cc(C(ON=Cc2ccccc2)(C(F)(F)F)C(F)(F)F)cc(C)c1NC(=O)c1cccc(NC(=O)c2cccnc2Cl)c1` [1-125] showed an insecticidal activity of 100%. The same measure for `Cc1cc(C(Oc2ccc(Cl)cc2)(C(F)(F)F)C(F)(F)F)ccc1NC(=O)c1cccc(NC(=O)c2cccnc2Cl)c1` [1-201]: 100%.

Regarding `Cc1cc(C(n2nc(C(F)(F)F)cc2C(F)(F)F)(C(F)(F)F)C(F)(F)F)cc(C)c1NC(=O)c1cccc(NC(=O)c2cccnc2F)c1` [2-125], the insecticidal activity was 100%. The same measure for `CCc1cc(C(Oc2cccc(C(F)(F)F)c2)(C(F)(F)F)C(F)(F)F)cc(C)c1NC(=O)c1cccc(NC(=O)c2cccnc2Cl)c1` [1-110]: 100%; for `Cc1cc(C(n2nc(C(F)(F)F)cc2C(F)(F)F)C(F)(F)F)cc(C)c1NC(=O)c1cccc(NC(=O)c2cccnc2Cl)c1` (stereo not drawn) [2-123, N-{3-[(4-{1-[3,5-bis(trifluoromethyl)-1H-pyrazol-1-yl)-2,2,2-trifluoroethyl}-2,6-dimethylphenyl)carbamoyl]phenyl}-2-chloropyridine-3-carboxamide]: 100%. The same measure for `CCc1cc(C(ON=Cc2ccc(C)cc2)(C(F)(F)F)C(F)(F)F)cc(C)c1NC(=O)c1cccc(NC(=O)c2cccnc2Cl)c1` [1-149]: 100%; for `CCc1cc(C(OCC(F)(F)F)(C(F)(F)F)C(F)(F)F)cc(C)c1NC(=O)c1cccc(N)c1` [11-26]: 100%; for `Cc1cc(C(Oc2cccc(C(F)(F)F)c2)(C(F)(F)F)C(F)(F)F)cc(C)c1NC(=O)c1cccc(NC(=O)c2cccnc2Cl)c1` [1-167]: 100%. The result for `CCc1cc(C(N2CC=CC2)(C(F)(F)F)C(F)(F)F)cc(C)c1NC(=O)c1cccc(NC(=O)c2cccnc2Cl)c1` [2-170] reads 100%; that for `Cc1cc(C(n2cc(Cl)c(C(F)(F)F)n2)(C(F)(F)F)C(F)(F)F)cc(C)c1NC(=O)c1cccc(NC(=O)c2cccnc2Cl)c1` [2-118], 100%. As for `CSCCOC(c1cc(I)c(NC(=O)c2cccc(NC(=O)c3cccnc3Cl)c2)c(I)c1)(C(F)(F)F)C(F)(F)F` [1-104], the insecticidal activity is 100%. The result for `CCc1cc(C(n2cc(Cl)cn2)(C(F)(F)F)C(F)(F)F)cc(C)c1NC(=O)c1cccc(NC(=O)c2ccc(F)cc2F)c1` [2-38] reads 100%; that for `CCc1cc(C(Oc2ccnc(C(F)(F)F)c2)(C(F)(F)F)C(F)(F)F)cc(C)c1NC(=O)c1cccc(NC(=O)c2cccnc2Cl)c1` [1-112], 100%. As to `CCc1cc(C(n2cc(Cl)cn2)(C(F)(F)F)C(F)(F)F)cc(C)c1NC(=O)c1cccc(NC(=O)c2ccccc2F)c1` [2-30], the insecticidal activity is 100%.

On to `CCOC(c1cc(I)c(NC(=O)c2cccc(NC(=O)CCCl)c2)c(I)c1)(C(F)(F)F)C(F)(F)F` [1-23], for which the insecticidal activity is given as 100%.

Turning to `Cc1cc(C(n2cc(Br)c(Br)n2)(C(F)(F)F)C(F)(F)F)cc(C)c1NC(=O)c1cccc(NC(=O)c2cccnc2Cl)c1` [2-115], the insecticidal activity worked out at 100%. In turn, `Cc1cc(C(Oc2ccc(C#N)cc2)(C(F)(F)F)C(F)(F)F)cc(C)c1NC(=O)c1cccc(NC(=O)c2cccnc2Cl)c1` [1-180] had an insecticidal activity of 100%.
